According to patent publication US20250230193A1, “CYCLIC COMPOUND HAVING SELECTIVE KRAS INHIBITORY EFFECT ON HRAS AND NRAS” (CHUGAI SEIYAKU KABUSHIKI KAISHA, priority 2022, published 2025):
Where two headings read alike, the source gives them in different places.

How the values were obtained:
[1] = biological target: GDP-bound KRAS wild-type protein (Homo sapiens, UniProt P01116); assay: Binding to KRAS by surface plasmon resonance (SPR), Single Cycle Kinetics; details: GDP-bound KRAS wild-type protein
[2] = biological target: GDP-bound NRAS wild-type protein (Homo sapiens, UniProt P01111); assay: Binding to NRAS by surface plasmon resonance (SPR), Single Cycle Kinetics; details: SPR; for NRAS/KRAS (ratio of KD value for GDP-bound NRAS wild-type protein to KD value for KRAS): KD ratio class
[3] = biological target: GDP-bound HRAS wild-type protein (Homo sapiens, UniProt P01112); assay: Binding to HRAS by surface plasmon resonance (SPR), Single Cycle Kinetics; details: SPR; for HRAS/KRAS (ratio of KD value for GDP-bound HRAS wild-type protein to KD value for KRAS): KD ratio class
[4] = tested on: human lung cancer strain NCI-H441
[5] = read-out: NCI-H441 IC50, NCI-H441 cells, 4 days, CellTiter-Glo

Chain of GDP-bound HRAS wild-type protein (P01112 whole entry): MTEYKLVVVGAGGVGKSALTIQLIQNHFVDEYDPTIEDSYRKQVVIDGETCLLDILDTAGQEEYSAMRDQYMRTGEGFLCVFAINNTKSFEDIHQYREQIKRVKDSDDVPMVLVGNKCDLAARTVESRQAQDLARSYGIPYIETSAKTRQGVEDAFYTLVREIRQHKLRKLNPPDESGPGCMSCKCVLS
Chain of GDP-bound NRAS wild-type protein (P01111 whole entry): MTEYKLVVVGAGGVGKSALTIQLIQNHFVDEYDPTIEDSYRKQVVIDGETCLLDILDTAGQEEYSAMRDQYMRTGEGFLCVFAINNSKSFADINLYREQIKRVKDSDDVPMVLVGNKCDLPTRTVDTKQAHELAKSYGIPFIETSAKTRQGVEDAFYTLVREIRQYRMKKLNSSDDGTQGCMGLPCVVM

Kd ([1]; SPR, Single Cycle Kinetics) [nM] | IC50 [4, 5] [nM] | Kd ([1]; SPR Single Cycle Kinetics, 1:1 binding model) [nM] | IC50 [4] [nM] | SMILES | NRAS/KRAS (ratio of KD value for GDP-bound NRAS wild-type protein to KD value for KRAS) [2] | HRAS/KRAS (ratio of KD value for GDP-bound HRAS wild-type protein to KD value for KRAS) [3] | NRAS/KRAS (ratio of KD value with respect to GDP-bound NRAS wild-type protein to KD value with respect to KRAS) ([2]; KD ratio NRAS/KRAS, GDP-bound wild-type proteins) | HRAS/KRAS (ratio of KD value with respect to GDP-bound HRAS wild-type protein to KD value with respect to KRAS) ([3]; KD ratio HRAS/KRAS, GDP-bound wild-type proteins)
0.069 | 10.3 |  |  | CC[C@H](C)[C@@H]1NC(=O)[C@H](CC2CC2)N(C)C(=O)C[C@@H](C(=O)N(C)C)N(C)C(=O)[C@H](C2CCCC2)N(C)C(=O)C2(CCC2)NC(=O)[C@@H]2C[C@@H](C(F)(F)F)CN2C(=O)[C@H](CCc2cc(F)c(C(F)(F)F)c(F)c2)NC(=O)CN(C)C(=O)[C@H](Cc2ccc(C(F)(F)F)cc2)N2CC/C=C\C[C@@H](C2=O)N(C)C(=O)CN(C)C1=O [PP1498] | A (a compound having 10 or more and less than 20 is denoted as A) | A (a compound having 10 or more and less than 20 is denoted as A) |  | 
0.12 | 27.5 |  |  | CC[C@H](C)[C@@H]1NC(=O)[C@H](CC)N(C)C(=O)C[C@@H](C(=O)N(C)C)N(C)C(=O)[C@H](C2CCCC2)N(C)C(=O)C2(CCC2)NC(=O)[C@@H]2CC(F)(F)CN2C(=O)[C@H](CCc2cc(F)c(C(F)(F)F)c(F)c2)NC(=O)CN(C)C(=O)[C@H](CC2CCCCC2)N2CC/C=C\C[C@@H](C2=O)N(C)C(=O)CN(C)C1=O [PP1462] | A (a compound having 10 or more and less than 20 is denoted as A) | A (a compound having 10 or more and less than 20 is denoted as A) |  | 
 |  | 870 | 9250 | CC[C@H](C)[C@@H]1NC(=O)[C@@H](CC(C)C)N(C)C(=O)CSC[C@H](C(=O)N(C)C)N(C)C(=O)[C@@H](C2CCCC2)N(C)C(=O)C2(CCCC2)NC(=O)[C@@H]2CCCN2C(=O)[C@H](CCc2cc(F)c(C(F)(F)F)c(F)c2)NC(=O)CN(C)C(=O)[C@H](Cc2ccc(C(F)(F)F)cc2)N2CC=CC[C@@H](C2=O)N(C)C(=O)CN(C)C1=O [PP3108] |  |  | C (A compound having a KD ratio of 0.1 or more and less than 3 is denoted as C) | B (a compound having 3 or more and less than 10 is denoted as B)
0.44 | 76.8 |  |  | CCO[C@@H]1C[C@H]2C(=O)NC3(CCC3)C(=O)N(C)[C@@H](C3CCCC3)C(=O)N(C)[C@H](C(=O)N(C)C)CC(=O)N(C)[C@@H](CC3CCCC3)C(=O)N[C@@H]([C@@H](C)CC)C(=O)N(C)CC(=O)N(C)[C@H]3C/C=C\CCN(C3=O)[C@@H](Cc3ccc(C(F)(F)F)cc3)C(=O)N(C)CC(=O)N[C@@H](CCc3ccc4sccc4c3)C(=O)N2C1 [PP1261] | A (a compound having 10 or more and less than 20 is denoted as A) | A (a compound having 10 or more and less than 20 is denoted as A) |  | 
0.099 | 13.7 |  |  | CC[C@H](C)[C@@H]1NC(=O)[C@H](CC2CC2)N(C)C(=O)C[C@@H](C(=O)N(C)C)N(C)C(=O)[C@H](C2CCCC2)N(C)C(=O)C2(CCCC2)NC(=O)[C@@H]2C[C@H](C)CN2C(=O)[C@H](CCc2cc(F)c(C(F)(F)F)c(F)c2)NC(=O)CN(C)C(=O)[C@H](Cc2ccc(C(F)(F)F)cc2)N2CC/C=C\C[C@@H](C2=O)N(C)C(=O)CN(C)C1=O [PP1511] | AA (a compound having 20 or more is denoted as AA) | A (a compound having 10 or more and less than 20 is denoted as A) |  | 
